# What was measured:
# GP2D (KRAS G12D) = assay: Cell proliferation assay (CellTiter-Glo, 72 hours), GP2D; assay type: cell-based; settings: GP2d, 72 h, 384-well, CellTiter-Glo 2.0
# Experimental: (§1) Two thousand KRAS mutant cells per well were seeded in 384-well white plate and then treated with indicated compounds for 72 hours at 37° C. and 5% CO2. Cell proliferation was measured using CellTiter-Glo 2.0 luciferase-based ATP detection assay (Promega, Madison, WI) following the manufacturer's protocol. IC50 values were determined using Prism software (GraphPad Software, San Diego, CA).
# KRAS G12D = KRAS G12D (Homo sapiens, UniProt P01116, G12D); assay: biochemical
# Chain of KRAS G12D (P01116 1-188 isoform P01116-2 G12D): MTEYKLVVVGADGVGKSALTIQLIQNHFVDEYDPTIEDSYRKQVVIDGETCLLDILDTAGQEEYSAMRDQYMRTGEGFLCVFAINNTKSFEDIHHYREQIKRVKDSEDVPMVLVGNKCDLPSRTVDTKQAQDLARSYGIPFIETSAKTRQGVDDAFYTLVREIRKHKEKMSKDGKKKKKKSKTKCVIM
# SW620 (KRAS G12V) = assay: Cell proliferation assay (CellTiter-Glo, 72 hours), SW620; assay type: cell-based; settings: Homo sapiens, SW-620, 72 h, 384-well, CellTiter-Glo 2.0
# Experimental: as §1
# AGS (G12D) = assay: Cell proliferation assay (CellTiter-Glo, 72 hours), AGS; assay type: cell-based; settings: 72 h, 384-well, CellTiter-Glo 2.0
# Experimental: as §1
# KRAS G12V = KRAS G12V (Homo sapiens, UniProt P01116, G12V); assay: biochemical
# Chain of KRAS G12V (P01116 1-188 isoform P01116-2 G12V): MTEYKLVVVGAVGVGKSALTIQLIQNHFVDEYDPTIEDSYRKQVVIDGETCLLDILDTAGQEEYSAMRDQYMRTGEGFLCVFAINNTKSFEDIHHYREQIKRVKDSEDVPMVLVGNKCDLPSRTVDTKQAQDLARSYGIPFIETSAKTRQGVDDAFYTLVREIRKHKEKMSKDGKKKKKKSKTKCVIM
SMILES,IC50 (GP2D (KRAS G12D)),IC50 (KRAS G12D),IC50 (SW620 (KRAS G12V)),IC50 (AGS (G12D)),IC50 (KRAS G12V)
"C#Cc1c(F)ccc2cc(O)cc(-c3nc4c5c(nc(OC[C@@]67CCCN6C[C@H](F)C7)nc5c3F)N(C)[C@@H](CC)CO4)c12 [Example 96, 4-[(9S)-9-ethyl-4-fluoro-2-{[(2R,7aS)-2-fluorotetrahydro-1H-pyrrolizin-7a(5H)-yl]methoxy}-10-methyl-9,10-dihydro-8H-7-oxa-1,3,6,10-tetraazacyclohepta[1,2,3-de]naphthalen-5-yl]-5-ethynyl-6-fluoronaphthalen-2-ol]",16.8 nM,2.39 nM,92.6 nM,82.9 nM,2.46 nM
CCc1c(F)ccc2cc(O)cc(-c3nc4c5c(nc(OC[C@@]67CCCN6C[C@H](F)C7)nc5c3F)N(C)[C@@H](CC)CO4)c12 [Example 99],22.4 nM,0.85 nM,96.8 nM,86.3 nM,1.02 nM
C#Cc1c(F)ccc2cc(O)cc(-c3nc4c5c(nc(OC[C@@]67CCCN6C[C@H](F)C7)nc5c3F)N3CCCC(O4)C3CO)c12 (stereo partly drawn) [Example 104],188 nM,7.51 nM,903 nM,666 nM,9.01 nM
"C#Cc1c(F)ccc2cc(O)cc(-c3nc4c5c(nc(OC[C@@]67CCCN6C[C@H](F)C7)nc5c3F)N3CC=CC[C@H]3CO4)c12 [Example 106, 5-ethynyl-6-fluoro-4-[(7S)-13-fluoro-16-[[(2R,8S)-2-fluoro-1,2,3,5,6,7-hexahydropyrrolizin-8-yl]methoxy]-9-oxa-2,11,15,17-tetrazatetracyclo [8.7.1.0^2,7.0^14,18]octadeca-1 (17),4,10 (18),11,13,15-hexaen-12-yl]naphthalen-2-ol]",14.6 nM,3.26 nM,64.5 nM,48.8 nM,3.83 nM
"C#Cc1c(F)ccc2cc(O)cc(-c3nc4c5c(nc(OC[C@@]67CCCN6C[C@H](F)C7)nc5c3F)N3CC(C#N)CCC3CO4)c12 (stereo partly drawn) [Example 109, 5-(8-ethynyl-7-fluoro-3-hydroxynaphthalen-1-yl)-4-fluoro-2-{[(2R,7aS)-2-fluorotetrahydro-1H-pyrrolizin-7a(5H)-yl]methoxy}-8,8a,9,10,11,12-hexahydro-7-oxa-1,3,6,12a-tetraazabenzo[4,5]cyclohepta[1,2,3-de]naphthalene-11-carbonitrile]",2000 nM,15.9 nM,> 3000 nM,> 3000 nM,27 nM
"C#Cc1c(F)ccc2cc(O)cc(-c3nc4c5c(nc(OC[C@@]67CCCN6C[C@H](F)C7)nc5c3F)N3CC(C(N)=O)CCC3CO4)c12 (stereo partly drawn) [Example 110, 5-(8-ethynyl-7-fluoro-3-hydroxynaphthalen-1-yl)-4-fluoro-2-{[(2R,7aS)-2-fluorotetrahydro-1H-pyrrolizin-7a(5H)-yl]methoxy}-8,8a,9,10,11,12-hexahydro-7-oxa-1,3,6,12a-tetraazabenzo[4,5]cyclohepta[1,2,3-de]naphthalene-11-carboxamide]",> 3000 nM,> 10000 nM,> 3000 nM,> 3000 nM,> 10000 nM
"CC[C@H]1COc2nc(-c3cc(O)cc4ccc(F)c(Cl)c34)c(F)c3nc(OC[C@@]45CCCN4C[C@H](F)C5)nc(c23)N1C [Example 111, 5-chloro-4-[(9S)-9-ethyl-4-fluoro-2-{[(2R,7aS)-2-fluorotetrahydro-1H-pyrrolizin-7a(5H)-yl]methoxy}-10-methyl-9,10-dihydro-8H-7-oxa-1,3,6,10-tetraazacyclohepta[1,2,3-de]naphthalen-5-yl]-6-fluoronaphthalen-2-ol]",59.7 nM,1.28 nM,499 nM,361 nM,1.41 nM
"C#Cc1c(F)ccc2cc(O)cc(-c3nc4c5c(nc(OC[C@@]67CCCN6C[C@H](F)C7)nc5c3F)N3C[C@H](C#N)CC[C@H]3CO4)c12 [Example 118, (5aS,8R)-2-(8-ethynyl-7-fluoro-3-hydroxynaphthalen-1-yl)-1-fluoro-11-(((2R,7aS)-2-fluorotetrahydro-1H-pyrrolizin-7a(5H)-yl)methoxy)-5,5a,6,7,8,9-hexahydro-4-oxa-3,9a,10,12-tetraazabenzo[4,5]cyclohepta[1,2,3-de]naphthalene-8-carbonitrile]",> 3000 nM,52.5 nM,> 3000 nM,> 3000 nM,58.9 nM
"CCc1c(F)ccc2cc(O)cc(-c3nc4c5c(nc(OC[C@@]67CCCN6C[C@H](F)C7)nc5c3F)N3CCCC(O)C3CO4)c12 (stereo partly drawn) [Example 119, 5-(8-ethyl-7-fluoro-3-hydroxynaphthalen-1-yl)-4-fluoro-2-{[(2R,7aS)-2-fluorotetrahydro-1H-pyrrolizin-7a(5H)-yl]methoxy}-8,8a,9,10,11,12-hexahydro-7-oxa-1,3,6,12a-tetraazabenzo[4,5]cyclohepta[1,2,3-de]naphthalen-9-ol]",103 nM,2.48 nM,307 nM,258 nM,2.16 nM
"C#Cc1c(F)ccc2cc(O)cc(-c3nc4c5c(nc(OC[C@@]67CCCN6C[C@H](F)C7)nc5c3F)N3CCCCC3CC4)c12 (stereo partly drawn) [Example 121, 5-ethynyl-6-fluoro-4-(4-fluoro-2-{[(2R,7aS)-2-fluorotetrahydro-1H-pyrrolizin-7a(5H)-yl]methoxy}-8,8a,9,10,11,12-hexahydro-7H-1,3,6,12a-tetraazabenzo[4,5]cyclohepta[1,2,3-de]naphthalen-5-yl)naphthalen-2-ol]",3.67 nM,1.74 nM,16.6 nM,21.5 nM,1.99 nM
"C#Cc1c(F)ccc2cc(O)cc(-c3nc4c5c(nc(OC[C@@]67CCCN6C[C@H](F)C7)nc5c3F)NCCC4)c12 [Example 122, 5-ethynyl-6-fluoro-4-(4-fluoro-2-{[(2R,7aS)-2-fluorotetrahydro-1H-pyrrolizin-7a(5H)-yl]methoxy}-7,8,9,10-tetrahydro-1,3,6,10-tetraazacyclohepta[1,2,3-de]naphthalen-5-yl)naphthalen-2-ol]",2410 nM,14.8 nM,4900 nM,5490 nM,16.9 nM
"C#Cc1c(F)ccc2cc(O)cc(-c3nc4c5c(nc(OC[C@@]67CCCN6C[C@H](F)C7)nc5c3F)N[C@@H](C3CCCO3)CO4)c12 (stereo partly drawn) [Example 126, 5-ethynyl-6-fluoro-4-((9R)-4-fluoro-2-(((2R,7aS)-2-fluorotetrahydro-1H-pyrrolizin-7a(5H)-yl)methoxy)-9-(tetrahydrofuran-2-yl)-9,10-dihydro-8H-7-oxa-1,3,6,10-tetraazacyclohepta[de]naphthalen-5-yl)naphthalen-2-ol]",> 3000 nM,111 nM,109 nM,> 3000 nM,30.2 nM
"C#Cc1c(F)ccc2cc(O)cc(-c3nc4c5c(nc(OC[C@@]67CCCN6C[C@H](F)C7)nc5c3F)N(CC)[C@@H](C)CO4)c12 [Example 127, 4-[(9S)-10-ethyl-4-fluoro-2-{[(2R,7aS)-2-fluorotetrahydro-1H-pyrrolizin-7a(5H)-yl]methoxy}-9-methyl-9,10-dihydro-8H-7-oxa-1,3,6,10-tetraazacyclohepta[1,2,3-de]naphthalen-5-yl]-5-ethynyl-6-fluoronaphthalen-2-ol]",4.54 nM,2.61 nM,9.86 nM,8.8 nM,3.2 nM
"C#Cc1c(F)ccc2cc(O)cc(-c3nc4c5c(nc(OC[C@@]67CCCN6C[C@H](F)C7)nc5c3F)N3CCC[C@@H](O)[C@H]3CO4)c12 [compound 25, (8aR,9R)-5-(8-ethynyl-7-fluoro-3-hydroxynaphthalen-1-yl)-4-fluoro-2-{[(2R,7aS)-2-fluorotetrahydro-1H-pyrrolizin-7a(5H)-yl]methoxy}-8,8a,9,10,11,12-hexahydro-7-oxa-1,3,6,12a-tetraazabenzo[4,5]cyclohepta[1,2,3-de]naphthalen-9-ol]",76.4 nM,2.03 nM,654 nM,166 nM,2.16 nM
"C#Cc1c(F)ccc2cc(O)cc(-c3nc4c5c(nc(OC[C@@]67CCCN6C[C@H](F)C7)nc5c3F)N3CCC[C@H](O)[C@@H]3CO4)c12 [compound 103, (8aS,9S)-5-(8-ethynyl-7-fluoro-3-hydroxynaphthalen-1-yl)-4-fluoro-2-{[(2R,7aS)-2-fluorotetrahydro-1H-pyrrolizin-7a(5H)-yl]methoxy}-8,8a,9,10,11,12-hexahydro-7-oxa-1,3,6,12a-tetraazabenzo[4,5]cyclohepta[1,2,3-de]naphthalen-9-ol]",580 nM,22.4 nM,> 3000 nM,924 nM,15.9 nM
